Activity data for 43 molecules are collected here from ChEMBL document CHEMBL1137357, “Further synthetic and biological studies on vitamin D hormone antagonists based on C24-alkylation and C2alpha-functionalization of 25-dehydro-1alpha-hydroxyvitamin D(3)-26,23-lactones” (J Med Chem, 2006).

In the assay the target is T1, Vitamin D3 receptor (Homo sapiens) (UniProt P11473).
T1 sequence (whole entry): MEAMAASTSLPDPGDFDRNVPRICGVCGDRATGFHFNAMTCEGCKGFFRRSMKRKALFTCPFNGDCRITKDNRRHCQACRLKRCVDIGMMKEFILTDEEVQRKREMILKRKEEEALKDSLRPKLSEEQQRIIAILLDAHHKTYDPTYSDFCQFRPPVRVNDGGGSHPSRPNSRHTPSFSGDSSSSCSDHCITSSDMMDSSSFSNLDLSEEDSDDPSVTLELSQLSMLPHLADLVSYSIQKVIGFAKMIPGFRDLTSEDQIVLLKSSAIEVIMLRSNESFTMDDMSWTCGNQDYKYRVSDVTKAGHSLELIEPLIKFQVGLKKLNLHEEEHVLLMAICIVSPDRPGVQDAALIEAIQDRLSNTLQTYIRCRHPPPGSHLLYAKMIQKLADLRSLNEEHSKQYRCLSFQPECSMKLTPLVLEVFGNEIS
Nature of the assay: Antagonist activity against 1-alpha,25-dihydroxy vitamin D3-induced HL60 cell differentiation by NBT reduction method relative to TEI-9647. The conditions noted are these: HL-60. The format is functional, cell-based. Also on record: scale not given: the % may be the effect or the level left.
For `C=C1/C(=C\C=C2/CCC[C@]3(C)[C@@H]([C@H](C)C[C@H]4OC(=O)C(=C)[C@@H]4CCCC)CC[C@@H]23)C[C@@H](O)C[C@@H]1O`, the Activity was found to be 4%.
In turn, `C=C1/C(=C\C=C2/CCC[C@]3(C)[C@@H]([C@H](C)C[C@H]4OC(=O)C(=C)[C@@H]4C)CC[C@@H]23)C[C@@H](O)[C@H](OCCCO)[C@@H]1O` yielded an Activity of 12%.
Take `C=C1/C(=C\C=C2/CCC[C@]3(C)[C@@H]([C@H](C)C[C@H]4OC(=O)C(=C)[C@H]4CC(C)C)CC[C@@H]23)C[C@@H](O)[C@H](C)[C@@H]1O`: the Activity is 50%.
Under `C=C1C(=O)O[C@H](C[C@@H](C)[C@H]2CC[C@H]3/C(=C/C=C4/C[C@@H](O)C[C@H](O)C4=C)CCC[C@]23C)[C@@H]1CC` stands 13%.
Molecule `C=C1/C(=C\C=C2/CCC[C@]3(C)[C@@H]([C@H](C)C[C@H]4OC(=O)C(=C)[C@@H]4C)CC[C@@H]23)C[C@@H](O)[C@H](CCCO)[C@@H]1O` returned an Activity of 8%.
Under `C=C1/C(=C\C=C2/CCC[C@]3(C)[C@@H]([C@H](C)C[C@@H]4OC(=O)C(=C)[C@@H]4CC(C)C)CC[C@@H]23)C[C@@H](O)[C@H](CCCO)[C@@H]1O` stands 989%.
Molecule `C=C1/C(=C\C=C2/CCC[C@]3(C)[C@@H]([C@H](C)C[C@@H]4OC(=O)C(=C)[C@@H]4CC(C)C)CC[C@@H]23)C[C@@H](O)C[C@@H]1O` registered an Activity of 174%.
Consider `C=C1/C(=C\C=C2/CCC[C@]3(C)[C@@H]([C@H](C)C[C@@H]4OC(=O)C(=C)C4(C)C)CC[C@@H]23)C[C@@H](O)C[C@@H]1O`, for which the Activity came to 1170%.
For `C=C1/C(=C\C=C2/CCC[C@]3(C)[C@@H]([C@H](C)C[C@@H]4OC(=O)C(=C)[C@@H]4C)CC[C@@H]23)C[C@@H](O)[C@H](C)[C@@H]1O` the value was 3750%; for `C=C1/C(=C\C=C2/CCC[C@]3(C)[C@@H]([C@H](C)C[C@H]4OC(=O)C(=C)[C@@H]4CCC)CC[C@@H]23)C[C@@H](O)[C@H](OCCCO)[C@@H]1O`, 124%; for `C=C1/C(=C\C=C2/CCC[C@]3(C)[C@@H]([C@H](C)C[C@@H]4OC(=O)C(=C)[C@H]4CCC)CC[C@@H]23)C[C@@H](O)[C@H](C)[C@@H]1O`, 2030%.
Under `C=C1/C(=C\C=C2/CCC[C@]3(C)[C@@H]([C@H](C)C[C@@H]4OC(=O)C(=C)[C@H]4CCC)CC[C@@H]23)C[C@@H](O)[C@H](OCCCO)[C@@H]1O` stands 12100%; under `C=C1/C(=C\C=C2/CCC[C@]3(C)[C@@H]([C@H](C)C[C@H]4OC(=O)C(=C)[C@@H]4C)CC[C@@H]23)C[C@@H](O)C[C@@H]1O`, 7%; under `C=C1/C(=C\C=C2/CCC[C@]3(C)[C@@H]([C@H](C)C[C@@H]4OC(=O)C(=C)[C@@H]4CCC)CC[C@@H]23)C[C@@H](O)C[C@@H]1O`, 86%.
Under `C=C1/C(=C\C=C2/CCC[C@]3(C)[C@@H]([C@H](C)C[C@@H]4OC(=O)C(=C)[C@@H]4CC)CC[C@@H]23)C[C@@H](O)[C@H](C)[C@@H]1O` stands 1290%; under `C=C1/C(=C\C=C2/CCC[C@]3(C)[C@@H]([C@H](C)C[C@H]4OC(=O)C(=C)[C@H]4CC(C)C)CC[C@@H]23)C[C@@H](O)[C@H](CCCO)[C@@H]1O`, 31%; under `C=C1/C(=C\C=C2/CCC[C@]3(C)[C@@H]([C@H](C)C[C@H]4OC(=O)C(=C)[C@@H]4CCCC)CC[C@@H]23)C[C@@H](O)[C@H](C)[C@@H]1O`, 1%.
`C=C1/C(=C\C=C2/CCC[C@]3(C)[C@@H]([C@H](C)C[C@H]4OC(=O)C(=C)[C@H]4CC)CC[C@@H]23)C[C@@H](O)[C@H](OCCCO)[C@@H]1O`: the Activity stood at 27%.
For `C=C1C(=O)O[C@@H](C[C@@H](C)[C@H]2CC[C@H]3/C(=C/C=C4/C[C@@H](O)C[C@H](O)C4=C)CCC[C@]23C)[C@@H]1CCC` the value was 60%.
For `C=C1/C(=C\C=C2/CCC[C@]3(C)[C@@H]([C@H](C)C[C@@H]4OC(=O)C(=C)[C@H]4CCCC)CC[C@@H]23)C[C@@H](O)[C@H](OCCCO)[C@@H]1O`, the Activity turned out to be 205%.
For `C=C1/C(=C\C=C2/CCC[C@]3(C)[C@@H]([C@H](C)C[C@H]4OC(=O)C(=C)[C@@H]4CC)CC[C@@H]23)C[C@@H](O)[C@H](OCCCO)[C@@H]1O` the value was 25%.
Molecule `C=C1/C(=C\C=C2/CCC[C@]3(C)[C@@H]([C@H](C)C[C@@H]4OC(=O)C(=C)[C@H]4CC(C)C)CC[C@@H]23)C[C@@H](O)[C@H](CCCO)[C@@H]1O` came in with an Activity of 388%.
For `C=C1C(=O)O[C@@H](C[C@@H](C)[C@H]2CC[C@H]3/C(=C/C=C4/C[C@@H](O)C[C@H](O)C4=C)CCC[C@]23C)[C@@H]1C`, the Activity came to 250%.
Under `C=C1/C(=C\C=C2/CCC[C@]3(C)[C@@H]([C@H](C)C[C@H]4OC(=O)C(=C)[C@@H]4CCCC)CC[C@@H]23)C[C@@H](O)[C@H](CCCO)[C@@H]1O` stands 303%; under `C=C1C(=O)O[C@@H](C[C@@H](C)[C@H]2CC[C@H]3/C(=C/C=C4/C[C@@H](O)[C@H](OCCCO)[C@H](O)C4=C)CCC[C@]23C)[C@@H]1C`, 1740%; under `C=C1/C(=C\C=C2/CCC[C@]3(C)[C@@H]([C@H](C)C[C@H]4OC(=O)C(=C)[C@H]4CCC)CC[C@@H]23)C[C@@H](O)[C@H](OCCCO)[C@@H]1O`, 97%.
For `C=C1C[C@H](C[C@@H](C)[C@H]2CC[C@H]3/C(=C/C=C4/C[C@@H](O)[C@H](CCCO)[C@H](O)C4=C)CCC[C@]23C)OC1=O` the value was 2990%.
For `C=C1C[C@H](C[C@@H](C)[C@H]2CC[C@H]3/C(=C/C=C4/C[C@@H](O)[C@H](OCCCO)[C@H](O)C4=C)CCC[C@]23C)OC1=O` the value was 1160%.
As for `C=C1/C(=C\C=C2/CCC[C@]3(C)[C@@H]([C@H](C)C[C@H]4OC(=O)C(=C)[C@@H]4CCC)CC[C@@H]23)C[C@@H](O)[C@H](CCCO)[C@@H]1O`, the Activity is 573%.
For `C=C1/C(=C\C=C2/CCC[C@]3(C)[C@@H]([C@H](C)C[C@H]4OC(=O)C(=C)[C@H]4CCCC)CC[C@@H]23)C[C@@H](O)[C@H](CCCO)[C@@H]1O` the value was 46%; for `C=C1C(=O)O[C@@H](C[C@@H](C)[C@H]2CC[C@H]3/C(=C/C=C4/C[C@@H](O)[C@H](CCCO)[C@H](O)C4=C)CCC[C@]23C)[C@@H]1C`, 1510%; for `C=C1C(=O)O[C@H](C[C@@H](C)[C@H]2CC[C@H]3/C(=C/C=C4/C[C@@H](O)C[C@H](O)C4=C)CCC[C@]23C)[C@@H]1CCCC`, 17%.
Under `C=C1/C(=C\C=C2/CCC[C@]3(C)[C@@H]([C@H](C)C[C@H]4OC(=O)C(=C)[C@@H]4CC)CC[C@@H]23)C[C@@H](O)C[C@@H]1O` stands 6%; under `C=C1C(=O)O[C@H](C[C@@H](C)[C@H]2CC[C@H]3/C(=C/C=C4/C[C@@H](O)C[C@H](O)C4=C)CCC[C@]23C)[C@@H]1CC(C)C`, 9%.
For `C=C1C(=O)O[C@@H](C[C@@H](C)[C@H]2CC[C@H]3/C(=C/C=C4/C[C@@H](O)C[C@H](O)C4=C)CCC[C@]23C)[C@@H]1CC` the value was 70%; for `C=C1/C(=C\C=C2/CCC[C@]3(C)[C@@H]([C@H](C)C[C@@H]4OC(=O)C(=C)[C@@H]4CCCC)CC[C@@H]23)C[C@@H](O)[C@H](OCCCO)[C@@H]1O`, 1660%.
Molecule `C=C1C(=O)O[C@H](C[C@@H](C)[C@H]2CC[C@H]3/C(=C/C=C4/C[C@@H](O)[C@H](CCCO)[C@H](O)C4=C)CCC[C@]23C)[C@@H]1C` yielded an Activity of 30%.
For `C=C1/C(=C\C=C2/CCC[C@]3(C)[C@@H]([C@H](C)C[C@@H]4OC(=O)C(=C)C45CC5)CC[C@@H]23)C[C@@H](O)C[C@@H]1O` the value was 284%; for `C=C1C(=O)O[C@@H](C[C@@H](C)[C@H]2CC[C@H]3/C(=C/C=C4/C[C@@H](O)C[C@H](O)C4=C)CCC[C@]23C)[C@@H]1CC(C)C`, 40%.
Under `C=C1/C(=C\C=C2/CCC[C@]3(C)[C@@H]([C@H](C)C[C@H]4OC(=O)C(=C)C4(C)C)CC[C@@H]23)C[C@@H](O)C[C@@H]1O` stands 16%; under `C=C1/C(=C\C=C2/CCC[C@]3(C)[C@@H]([C@H](C)C[C@H]4OC(=O)C(=C)[C@H]4CCCC)CC[C@@H]23)C[C@@H](O)[C@H](OCCCO)[C@@H]1O`, 37%; under `C=C1/C(=C\C=C2/CCC[C@]3(C)[C@@H]([C@H](C)C[C@@H]4OC(=O)C(=C)[C@H]4CCC)CC[C@@H]23)C[C@@H](O)[C@H](CCCO)[C@@H]1O`, 913%.
For `C=C1/C(=C\C=C2/CCC[C@]3(C)[C@@H]([C@H](C)C[C@@H]4OC(=O)C(=C)[C@@H]4CC)CC[C@@H]23)C[C@@H](O)C[C@@H]1O`, the Activity was 345%.
